Reference: PMC8717895 (Neuro-oncology Advances, 2021)
Entries after “also recorded” stand apart in the source; their conditions may differ. Where two headings read alike, the source gives them in different places. Marks after values point to notes of the source that are not given here.

Assay type: in vivo, human
[1] = stratum A, Level 1 (100 mg/m^2), Grade 1/2
[2] = stratum A, Level 1 (100 mg/m^2), Grade 3/4
[3] = stratum A, Level 2 (130 mg/m^2), Grade 1/2
[4] = stratum A, Level 2 (130 mg/m^2), Grade 3/4
[5] = stratum A, Level 3 (170 mg/m^2), Grade 1/2
[6] = stratum A, Level 3 (170 mg/m^2), Grade 3/4
[7] = stratum A, Level 4 (220 mg/m^2), Grade 1/2
[8] = stratum A, Level 4 (220 mg/m^2), Grade 3/4

For `CC1(COc2ccc3c(c2)ncn3-c2ccc3cccc(N4CCC(N)CC4)c3n2)COC1` [crenolanib], the “Recommended pediatric phase II dosage” value (once daily with food, with or without RT) was 170 mg/m^2, the ALT increased [1] was 10 (83%) and the AST increased [1] was 6 (50%). For the same compound, the Abdominal pain [1] was 2 (17%), the Alkaline phosphatase increased [1] was 1 (8%) and the Anemia [1] was 3 (25%). For the same compound, the Anorexia [1] was 1 (8%), the Diarrhea [1] was 2 (17%) and the Dyspepsia [1] was 2 (17%). The GGT increased [1] was 5 (42%), the Headache [1] was 0 and the Hematuria [1] was 3 (25%). The Hypermagnesemia [1] was 3 (25%), the Hypernatremia [1] was 1 (8%) and the Hypoalbuminemia [1] was 7 (58%). For the same compound, the Hypocalcemia [1] was 1 (8%), the Hypokalemia [1] was 5 (42%) and the Hypophosphatemia [1] was 7 (58%). The Lipase increased [1] was 5 (42%), the Lymphocyte count decreased [1] was 2 (17%) and the Nausea [1] was 8 (67%). For the same compound, the Neutrophil count decreased [1] was 0, the Platelet count decreased [1] was 4 (33%) and the Proteinuria [1] was 4 (33%). The Serum amylase increased [1] was 4 (33%), the Stomach pain [1] was 1 (8%) and the Vomiting [1] was 8 (67%). The “White blood cell decreased” value [1] was 4 (33%), the ALT increased [2] was 1 (8%) and the AST increased [2] was 0. For the same compound, the Abdominal pain [2] was 0, the Alkaline phosphatase increased [2] was 0 and the Anemia [2] was 1 (8%). The Anorexia [2] was 0, the Diarrhea [2] was 0 and the Dyspepsia [2] was 0. The GGT increased [2] was 3 (25%), the Headache [2] was 1 (8%) and the Hematuria [2] was 0. It also gave a Hypermagnesemia [2] of 0, a Hypernatremia [2] of 0 and a Hypoalbuminemia [2] of 0. For the same compound, the Hypocalcemia [2] was 0, the Hypokalemia [2] was 1 (8%) and the Hypophosphatemia [2] was 0. The Lipase increased [2] was 2 (17%), the Lymphocyte count decreased [2] was 8 (67%) and the Nausea [2] was 0. The Neutrophil count decreased [2] was 5 (42%)^a, the Platelet count decreased [2] was 1 (8%) and the Proteinuria [2] was 1 (8%). The Serum amylase increased [2] was 2 (17%), the Stomach pain [2] was 0 and the Vomiting [2] was 1 (8%). The “White blood cell decreased” value [2] was 5 (42%), the ALT increased [3] was 2 (33%) and the AST increased [3] was 4 (67%). The Abdominal pain [3] was 3 (50%), the Alkaline phosphatase increased [3] was 3 (50%) and the Anemia [3] was 3 (50%). The Anorexia [3] was 1 (17%), the Diarrhea [3] was 3 (50%) and the Dyspepsia [3] was 0. The GGT increased [3] was 5 (83%), the Headache [3] was 1 (17%) and the Hematuria [3] was 2 (33%). The Hypermagnesemia [3] was 1 (17%), the Hypernatremia [3] was 1 (17%) and the Hypoalbuminemia [3] was 2 (33%). The Hypocalcemia [3] was 2 (33%), the Hypokalemia [3] was 1 (17%) and the Hypophosphatemia [3] was 3 (50%). The Lipase increased [3] was 2 (33%), the Lymphocyte count decreased [3] was 0 and the Nausea [3] was 5 (83%). For the same compound, the Neutrophil count decreased [3] was 1 (17%), the Platelet count decreased [3] was 3 (50%) and the Proteinuria [3] was 5 (83%). For the same compound, the Serum amylase increased [3] was 0, the Stomach pain [3] was 2 (33%) and the Vomiting [3] was 6 (100%). For the same compound, the “White blood cell decreased” value [3] was 3 (50%), the ALT increased [4] was 2 (33%) and the AST increased [4] was 0. It also gave an Abdominal pain [4] of 0, an Alkaline phosphatase increased [4] of 0 and an Anemia [4] of 0. For the same compound, the Anorexia [4] was 0, the Diarrhea [4] was 0 and the Dyspepsia [4] was 0. The GGT increased [4] was 0, the Headache [4] was 1 (17%) and the Hematuria [4] was 0. The Hypermagnesemia [4] was 0, the Hypernatremia [4] was 0 and the Hypoalbuminemia [4] was 0. The Hypocalcemia [4] was 0, the Hypokalemia [4] was 1 (17%) and the Hypophosphatemia [4] was 0. The Lipase increased [4] was 0, the Lymphocyte count decreased [4] was 6 (100%) and the Nausea [4] was 0. The Neutrophil count decreased [4] was 2 (33%), the Platelet count decreased [4] was 0 and the Proteinuria [4] was 1 (17%). The Serum amylase increased [4] was 1 (17%), the Stomach pain [4] was 0 and the Vomiting [4] was 0. The “White blood cell decreased” value [4] was 2 (33%), the ALT increased [5] was 4 (67%) and the AST increased [5] was 5 (83%). For the same compound, the Abdominal pain [5] was 2 (33%), the Alkaline phosphatase increased [5] was 2 (33%) and the Anemia [5] was 3 (50%). The Anorexia [5] was 3 (50%), the Diarrhea [5] was 3 (50%) and the Dyspepsia [5] was 1 (17%). The GGT increased [5] was 4 (67%), the Headache [5] was 0 and the Hematuria [5] was 3 (50%). The Hypermagnesemia [5] was 3 (50%), the Hypernatremia [5] was 2 (33%) and the Hypoalbuminemia [5] was 4 (67%). For the same compound, the Hypocalcemia [5] was 1 (17%), the Hypokalemia [5] was 2 (33%) and the Hypophosphatemia [5] was 3 (50%). For the same compound, the Lipase increased [5] was 1 (17%), the Lymphocyte count decreased [5] was 2 (33%) and the Nausea [5] was 5 (83%). The Neutrophil count decreased [5] was 1 (17%), the Platelet count decreased [5] was 2 (33%) and the Proteinuria [5] was 5 (83%). For the same compound, the Serum amylase increased [5] was 3 (50%), the Stomach pain [5] was 0 and the Vomiting [5] was 6 (100%). For the same compound, the “White blood cell decreased” value [5] was 4 (67%), the ALT increased [6] was 2 (33%) and the AST increased [6] was 1 (17%). For the same compound, the Abdominal pain [6] was 0, the Alkaline phosphatase increased [6] was 0 and the Anemia [6] was 0. For the same compound, the Anorexia [6] was 0, the Diarrhea [6] was 0 and the Dyspepsia [6] was 0. The GGT increased [6] was 2 (33%)^a, the Headache [6] was 0 and the Hematuria [6] was 0. It also gave a Hypermagnesemia [6] of 0, a Hypernatremia [6] of 0 and a Hypoalbuminemia [6] of 0. The Hypocalcemia [6] was 0, the Hypokalemia [6] was 2 (33%) and the Hypophosphatemia [6] was 0. The Lipase increased [6] was 0, the Lymphocyte count decreased [6] was 4 (67%) and the Nausea [6] was 0. It also gave a Neutrophil count decreased [6] of 0, a Platelet count decreased [6] of 0 and a Proteinuria [6] of 0. For the same compound, the Serum amylase increased [6] was 0, the Stomach pain [6] was 0 and the Vomiting [6] was 0. The “White blood cell decreased” value [6] was 1 (17%), the ALT increased [7] was 6 (75%) and the AST increased [7] was 7 (88%). The Abdominal pain [7] was 1 (13%), the Alkaline phosphatase increased [7] was 1 (13%) and the Anemia [7] was 6 (75%). For the same compound, the Anorexia [7] was 2 (25%), the Diarrhea [7] was 4 (50%) and the Dyspepsia [7] was 0. For the same compound, the GGT increased [7] was 6 (75%), the Headache [7] was 1 (13%) and the Hematuria [7] was 2 (25%). For the same compound, the Hypermagnesemia [7] was 5 (63%), the Hypernatremia [7] was 0 and the Hypoalbuminemia [7] was 6 (75%). For the same compound, the Hypocalcemia [7] was 3 (38%), the Hypokalemia [7] was 3 (38%) and the Hypophosphatemia [7] was 6 (75%). The Lipase increased [7] was 2 (25%), the Lymphocyte count decreased [7] was 0 and the Nausea [7] was 7 (88%). For the same compound, the Neutrophil count decreased [7] was 1 (13%), the Platelet count decreased [7] was 3 (38%) and the Proteinuria [7] was 5 (63%). The Serum amylase increased [7] was 3 (38%), the Stomach pain [7] was 0 and the Vomiting [7] was 8 (100%). The “White blood cell decreased” value [7] was 7 (88%), the ALT increased [8] was 2 (25%)^a and the AST increased [8] was 0. It also gave an Abdominal pain [8] of 0, an Alkaline phosphatase increased [8] of 0 and an Anemia [8] of 0. The Anorexia [8] was 0, the Diarrhea [8] was 0 and the Dyspepsia [8] was 0. The GGT increased [8] was 1 (13%)^a, the Headache [8] was 0 and the Hematuria [8] was 0. The Hypermagnesemia [8] was 0, the Hypernatremia [8] was 0 and the Hypoalbuminemia [8] was 0. For the same compound, the Hypocalcemia [8] was 1 (13%), the Hypokalemia [8] was 2 (25%) and the Hypophosphatemia [8] was 1 (13%). For the same compound, the Lipase increased [8] was 0, the Lymphocyte count decreased [8] was 8 (100%) and the Nausea [8] was 0. It also gave a Neutrophil count decreased [8] of 0, a Platelet count decreased [8] of 0 and a Proteinuria [8] of 0. It also gave a Serum amylase increased [8] of 0, a Stomach pain [8] of 0 and a Vomiting [8] of 0. For the same compound, the “White blood cell decreased” value [8] was 0, the “DLTs attributable to crenolanib during the DLT observation period” value (“DLTs attributable” below) (stratum A, dose level 1) was “grade 4 neutropenia” and the “DLTs attributable” value (stratum A, dose level 3) was “grade 3 gamma-glutamyl transferase (GGT) elevation”. For the same compound, the “DLTs attributable” value (stratum A, dose level 4) was “grade 3 GGT elevation; also recorded: grade 3 ALT elevation”, the “patients having grade 3/4 elevations of ALT, AST, GGT, or alkaline phosphatase” value (stratum A, during and after the DLT period) was 28% and the “Maximum tolerated dose (MTD)” value (stratum A, once daily during and after RT, pediatric) was 170 mg/m^2. The “Most common grade 3/4 toxicity” value (stratum A, resolved with drug interruption) was “leukopenia”.
